Experimental findings from patent publication US20140011700A1 (Bristol-Myers Squibb Company, published 2014) are described below.

Among the test systems are A/WSN/33 N309K; A/WSN/33 Y289H; A/WSN/33 N309T; A/WSN/33 Y52H.
Format in all cases: cell-based, Influenza A

As usually defined, the EC50 is the concentration needed to bring the measured effect to its halfway point. Regarding `COc1ccccc1-c1noc(C)c1C(=O)N1CCN(c2ccc([N+](=O)[O-])cc2Cl)CC1` [Compound B], the EC50 in the test on A/WSN/33 N309K is over 20 µM; with A/WSN/33 Y289H, over 20 µM; in the test on A/WSN/33 N309T, 3.5 µM; with A/WSN/33 Y52H, 8.15 µM.
Take `Cc1cc(Br)cnc1N1CCN(C(=O)c2c(-c3ccccc3Cl)noc2C)CC1` [Compound D]: the EC50 in the test on A/WSN/33 N309K, with A/WSN/33 Y289H, in the test on A/WSN/33 N309T and with A/WSN/33 Y52H was over 20 µM each time.
